According to PubChem BioAssay AID489022 (Sanford-Burnham Center for Chemical Genomics, 2010):
The source made the active and inactive calls. How the calls were made is not given here.

Tested on: HEK-293T NF-kB luciferase reporter, luminescence counterscreen
Test: NF-kB reporter suppression in HEK-293T cells – luminescence, B-cell screen hits, counter-screen for BCR NF-kB inhibitor project, dose response (AID 489022)

| SMILES | IC50 |
| --- | --- |
| O=c1cccc2c1c1cc[nH]c3ccc(=O)n2c31 | 2.93 µM |
| CC(C)c1[nH]nc2c1C(c1ccco1)C(C#N)=C(N)O2 (stereo not given) | > 80 µM (inactive) |
| COc1ccc(C2=NCc3nnc(C)n3-c3ccc(Cl)cc32)cc1Cl | > 80 µM (inactive) |
| Cn1nc(-c2ccc(Cl)cc2)c2cc(C(=O)N3CCCC3)sc21 | 3.75 µM |
| Cc1ccc(S(=O)(=O)CC2CSc3nc4ccccc4n32)cc1 (stereo not given) | 0.41 µM |
| COc1cc(/C(C)=N\NC(N)=S)cc(OC)c1OC | > 80 µM (inactive) |
| O=C(Nc1cccc(S(=O)(=O)Nc2ccc(Cl)cc2)c1)c1ccc(Cl)nc1 | 0.79 µM |
| Cn1cnc([N+](=O)[O-])c1Sc1ccc([N+](=O)[O-])cc1 | > 80 µM (inactive) |
| COc1ccc(-c2noc(N3CCC(C(=O)Nc4ccc(OC)c(OC)c4)CC3)n2)cc1 | > 80 µM (inactive) |
| Cc1nc2ccccn2c1C(=O)/C=C/c1cccc([N+](=O)[O-])c1 | 52.6 µM (inactive) |
| CCOc1ccc(/C=C2\SC(=S)N(CCCC(=O)NCCCN3CCOCC3)C2=O)cc1 | > 80 µM (inactive) |
| CCc1ccc(-c2nc(CSCC(=O)NC3CC3)c(C)o2)cc1 | 30.5 µM (inactive) |
| CCOC(=O)Cc1csc(NC(=S)NC(=O)c2ccc(Cl)cc2)n1 | > 80 µM (inactive) |
| CCc1ccc(/C=C2/SC(=S)N(CCC(=O)Nc3ccc(C(=O)O)cc3)C2=O)cc1 | > 80 µM (inactive) |
| COc1ccc(-n2nnnc2S(=O)(=O)CC(=O)N2CCCCC2)cc1 | 16.9 µM |
| COc1ccc(N(CC(=O)N2CCN(c3ccc(Cl)cc3)CC2)S(=O)(=O)c2c(C)n[nH]c2C)cc1 | 15.3 µM |
| CCOC(=O)C1CCN(c2ncnc3c2cnn3-c2ccc(OC)cc2)CC1 | 18.4 µM |
| CCOc1ccc(/C=C2\SC(=S)N(CCC(=O)Nc3cccc(C(=O)O)c3)C2=O)cc1 | > 80 µM (inactive) |
| Cc1ccc(/C=C2\SC(=S)N(CCCC(=O)Nc3ccc(O)cc3)C2=O)cc1 | > 80 µM (inactive) |
| CC(C)(C)c1ccc(-n2ncc3c2CCCC3NC(=O)C2(C(N)=O)CC2)cc1 (stereo not given) | 0.34 µM |
| CC(=C/c1ccco1)/C=N/NC(=O)CSc1nnc(SCc2ccc(C)cc2)s1 | > 80 µM (inactive) |
| Cc1nc([N+](=O)[O-])c(Sc2nc3ccc([N+](=O)[O-])cc3[nH]2)n1Cc1ccccc1 | 47.5 µM (inactive) |
| Cc1ccc(-c2nn3c(C)nnc3c3ccccc23)cc1S(=O)(=O)N1CCN(CCO)CC1 | 22.4 µM (inactive) |
| Cc1c(CCC(=O)N2CCC(C(=O)O)(c3ccccc3)CC2)c(=O)oc2cc3oc4c(c3cc12)CCCC4 | 21.6 µM (inactive) |

| SMILES | IC50 |
| --- | --- |
| COc1ccc(C(C(=O)NC2CCCCC2)N(C(=O)CCl)c2ccc(OC)cc2)cc1 (stereo not given) | 15.2 µM |
| COc1ccc(-c2ccc(C(C)=O)cc2)cc1[C@H]1[C@H]2C=CC[C@@H](C)[C@@H]2C(=O)N1Cc1ccccc1 | 14.2 µM |
| N=c1ccn2c(n1)OC1C(O)C(CO)OC12 (stereo not given) | > 80 µM (inactive) |
| COc1ccc(-c2noc(CCCC(=O)Nc3ccc(C(N)=O)cc3)n2)cc1 | 27.3 µM (inactive) |
| CCOc1ccc(-n2c(SCC(=O)Nc3ccc4c(c3)OCCO4)nc3c(c2=O)SCC3)cc1 | > 80 µM (inactive) |
| CCOC(=O)N1CCN(c2ncnc3c2[nH]c2ccc(OC)cc23)CC1 | 20.1 µM (inactive) |
| Cc1c(CCC(=O)NCCCn2ccnc2)c(=O)oc2c(C)c3oc4c(c3cc12)CCCC4 | 6.65 µM |
| O=S(=O)(NCc1ccncc1)c1ccc(Br)s1 | 0.86 µM |
| CCOc1ccc(-c2nnc(SCC(=O)NC3CC3)o2)cc1 | > 80 µM (inactive) |
| COc1ccc(/C=C/c2ccccc2)cc1[C@H]1[C@H]2C=CC[C@@H](C)[C@@H]2C(=O)N1Cc1ccccc1 | > 80 µM (inactive) |
| COc1cc(C(=O)Nc2cc(C)c(OCC(=O)N3CCOCC3)c(C)c2)cc(OC)c1OC | > 80 µM (inactive) |
| Cn1c(=O)n(C)c2cc(C(=O)Nc3ccc4c(c3)OCO4)ccc21 | > 80 µM (inactive) |
| COc1cc(-c2nc3ccc(N4CCN(C)CC4)cc3[nH]2)cc(OC)c1OC | > 80 µM (inactive) |
| Cc1nc2cc(-c3ccc(Cl)cc3)nn2c(C)c1CCC(=O)NCc1ccco1 | > 80 µM (inactive) |
| Cc1ccc(C2(c3ccc(C)cc3)CC2C(=O)Nc2ccc([N+](=O)[O-])cc2O)cc1 (stereo not given) | 4.59 µM |
| Cc1cnc(NC(=O)Nc2ccc(Cl)cc2)s1 | > 80 µM (inactive) |
| O=C(Cc1cccc2ccccc12)Nc1ccc(-c2cc3ccccc3oc2=O)cc1 | > 80 µM (inactive) |
| CC1Cc2ccccc2N1S(=O)(=O)c1cnc(Cl)c(Br)c1 (stereo not given) | 41.6 µM (inactive) |
| O=C(Oc1cccc(/C=N/Nc2nc(N3CCOCC3)nc(N3CCOCC3)n2)c1)c1ccco1 | > 80 µM (inactive) |
| Cc1ccc(-c2cc(C(=O)NCCCN3CCOCC3)no2)cc1 | > 80 µM (inactive) |
| Cc1cc(C)nc(Sc2ccc([N+](=O)[O-])cc2[N+](=O)[O-])n1 | > 80 µM (inactive) |
| CCOCCCNc1nc2c(C)cccn2c(=O)c1/C=C1\SC(=S)N(C(C)CC)C1=O (stereo not given) | > 80 µM (inactive) |
| CCN(CC(=O)Nc1c(F)cccc1F)C(=O)C1(c2ccccc2)CC1 | > 80 µM (inactive) |
| CN(C)CCCN=Cc1c(-c2ccccc2)[nH]n(-c2nc3ccccc3s2)c1=O | > 80 µM (inactive) |

| SMILES | IC50 |
| --- | --- |
| Cn1c(=O)cc(OCCCC(=O)NCc2ccccn2)c2ccccc21 | > 80 µM (inactive) |
| COC(=O)c1c(-c2ccc(N(C)C)cc2)sc2ccc(OC)cc12 | > 80 µM (inactive) |
| CCn1c(=O)c2cc(C(=O)NCc3cccs3)sc2c2ccccc21 | > 80 µM (inactive) |
| CCN(C(=O)CN1C(=O)NC(c2ccccc2)(c2ccc(C)c(C)c2)C1=O)C1CCCCC1 (stereo not given) | 26.6 µM (inactive) |
| Cc1ccc(-c2nn3c(C)nnc3c3ccccc23)cc1S(=O)(=O)NCCN1CCOCC1 | 32 µM (inactive) |
| N=c1ccn2c(n1)O[C@H]1[C@H](O)[C@@H](CO)O[C@H]12 | > 80 µM (inactive) |
| CCN1C(=O)c2cccc3c(NC(=O)c4cccc(N5C(=O)CCC5=O)c4)ccc1c23 | > 80 µM (inactive) |
| CCOc1ccc(-c2nc(CSCC(=O)NC3CC3)c(C)o2)cc1 | > 80 µM (inactive) |
| CCn1c(=O)cc(SCC(=O)N2CCOCC2)c2ccccc21 | > 80 µM (inactive) |
| CCOC(=O)Cc1csc(NC(=S)NC(=O)c2ccc(C)cc2)n1 | > 80 µM (inactive) |
| Cc1cc(C)cc(N2C(=O)NC(=O)/C(=C\c3cccn3-c3ccccc3)C2=O)c1 | > 80 µM (inactive) |
| C=C1C(=O)[C@@]23C[C@H]4[C@@H]5[C@@]6(C)CCC[C@@]57[C@@H]2[C@@H](O)[C@@H]1C[C@H]3[C@H]7N4C6 | 17.3 µM |
| COc1ccc(C(=O)N/N=C/c2sc(N3CCOCC3)nc2-c2ccccc2)cc1OC | 14 µM |
| N=c1c(C(=O)NC2CCCC2)cc2c(=O)n3ccccc3nc2n1CCN1CCOCC1 | > 80 µM (inactive) |
| Cc1c(CCO)c(=O)oc2n[nH]c(-c3ccccc3)c12 | > 80 µM (inactive) |
| COC(=O)c1cc(NC(=O)Nc2cc(OC)ccc2OC)cc(C(=O)OC)c1 | > 80 µM (inactive) |
| COc1ccc(-c2n(Cc3ccccc3)c3ccccc3[n+]2Cc2ccccc2)cc1 | 24.2 µM (inactive) |
| CC1CC(C)CN(S(=O)(=O)c2ccc(C(=O)NCCCn3ccnc3)cc2)C1 (stereo not given) | > 80 µM (inactive) |
| NC(=S)N=Nc1c(O)n(Cc2ccccc2)c2ccccc12 | > 80 µM (inactive) |
| O=C(NNC(=O)c1ccccc1O)c1ccc(Cl)c(S(=O)(=O)N2CCc3ccccc32)c1 | 0.47 µM |
| CC1CCN(c2c(NCc3ccc(C(=O)N4c5ccccc5CC4C)cc3)c(=O)c2=O)CC1 (stereo not given) | 8.73 µM |
| Cc1ccc2nc(NC(=O)CSCC(=O)OCC(=O)c3ccc(Br)cc3)sc2c1 | 1.82 µM |
| Cc1csc(NC(=O)CCc2c(C)nc3cc(-c4ccc(Cl)cc4)nn3c2C)n1 | 10.2 µM |
| Cc1cc(C)c(CN2CCN(C(=O)Cn3cnc4c(NCc5ccccc5)ncnc43)CC2)c(C)c1 | 0.51 µM |

| SMILES | IC50 |
| --- | --- |
| O=C(Nc1nc(-c2ccccc2)cs1)c1ccccc1NS(=O)(=O)c1ccc(F)cc1 | 0.39 µM |
| COCCNC(=O)CSCc1nc(-c2ccc(SC)cc2)oc1C | 65.6 µM (inactive) |
| O=C(O)CCSc1nc2ccccc2s1 | 2.07 µM |
| COc1cc(-c2nc(C(=O)NCC3CCCO3)cc3c2[nH]c2ccccc23)cc(OC)c1OC (stereo not given) | 13.7 µM |
| Cn1nc(-c2ccc(N3CCOCC3)c(NS(=O)(=O)c3ccccc3)c2)c2ccccc2c1=O | 36.9 µM (inactive) |
| Cc1ccccc1-c1cc(C(=O)Nc2sc(C(=O)OC(C)C)c(C)c2C#N)c2ccccc2n1 | 0.35 µM |
| Cc1nc(Nc2c(Cl)cccc2Cl)sc1C(=O)Nc1ccccc1 | 33 µM (inactive) |
| Cc1nn(C(C)(C)C)c(OC(=O)c2ccc(Br)o2)c1Sc1ccccc1 | 53.8 µM (inactive) |
| CC(C)[C@H](N)c1nnc(SCC(=O)c2ccc(Cl)cc2)o1 | > 80 µM (inactive) |
| CCc1ccc2[nH]c3nc(N/N=C/c4cccc(O)c4)nnc3c2c1 | > 80 µM (inactive) |
| Cc1c(NC(=O)/C=C/c2cn(-c3ccccc3)nc2-c2ccccc2)c(=O)n(-c2ccccc2)n1C | > 80 µM (inactive) |
| CCCNC(=O)c1ccc(N2CCC3(CC2)CC(c2cccc(Br)c2)=NO3)c(NC(=O)c2ccc(Cl)c([N+](=O)[O-])c2)c1 | > 80 µM (inactive) |
| CCCN1C(=O)/C(=C/c2c(N3CCNC(=O)C3CC(=O)OCC)nc3c(C)cccn3c2=O)SC1=S (stereo not given) | 14.5 µM |
| CC(C)CCNC(=O)CCCOc1cc(=O)n(C)c2ccccc12 | 60.7 µM (inactive) |
| COc1ccc(-c2ccoc2)cc1[C@H]1[C@H]2C=CC[C@@H](C)[C@@H]2C(=O)N1Cc1ccccc1 | 10.5 µM |
| COC(=O)C(C)Oc1cc(C)cc2oc(=O)c3c(c12)CCC3 (stereo not given) | 28.6 µM (inactive) |
| C[C@H]1CCC/C=C/C2C[C@H](O)CC2[C@H](O)/C=C/C(=O)O1 (stereo not given in full) | 0.29 µM |
| CCc1ccc(/C=C2\SC(=S)N(CCC(=O)NC3=NCCS3)C2=O)cc1 | > 80 µM (inactive) |
| CN(CC1CCCO1)S(=O)(=O)c1ccc(C(=O)Nc2nc3cc4c(cc3s2)OCO4)cc1 (stereo not given) | 0.36 µM |
| CCOc1ccc(-c2nc(CSCC(=O)NCc3ccco3)c(C)o2)cc1 | 18.9 µM |
| O=C(Nc1ccc(NC(=O)c2cc3ccccc3o2)cc1)c1ccc2c(c1)OCCO2 | > 80 µM (inactive) |
| CNC(=O)CCc1nc(-c2ccc(C(C)(C)C)cc2)no1 | 56.4 µM (inactive) |
| O=C(CCCN1C(=O)/C(=C/c2ccccc2Cl)SC1=S)NNC(=O)c1ccccc1Cl | 20 µM |
